Measured values published in ChEMBL document CHEMBL1128126, “Inhibitors of human leukocyte elastase. 2.1 synthesis and sar of benzisothiazolinylmethyl aryl ethers” (Bioorg Med Chem Lett, 1995).

Tests used:
Neutrophil elastase = biological target: T1, Neutrophil elastase (Homo sapiens, UniProt P08246); assay: Binding affinity for human leukocyte elastase (HLE); Kreact/Kinact
T1 sequence (P08246 whole entry): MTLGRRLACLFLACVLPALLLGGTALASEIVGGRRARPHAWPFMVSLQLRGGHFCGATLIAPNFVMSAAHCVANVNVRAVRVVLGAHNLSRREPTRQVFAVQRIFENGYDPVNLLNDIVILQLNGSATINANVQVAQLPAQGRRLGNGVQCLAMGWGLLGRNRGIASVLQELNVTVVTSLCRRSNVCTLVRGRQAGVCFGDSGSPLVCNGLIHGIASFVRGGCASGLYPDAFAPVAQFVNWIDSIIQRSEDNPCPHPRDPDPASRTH

[1] = biological target: T2, Neutrophil elastase (Homo sapiens) (UniProt P08246)
T2 sequence (whole entry): T1 sequence (P08246 whole entry)
Description: Inhibition of human leukocyte elastase (HLE)

Row | Ki (Neutrophil elastase) [nM] | K inact [1] [M⁻¹ s⁻¹] | SMILES
1 | 2.2 | 3700 | CO[C@H]1C(=O)N2C(C(=O)N3CCC[C@H]3C(=O)O)=C(COC(C)=O)CS(=O)(=O)[C@H]12
2 | > 100 |  | CC(C)c1cccc2c1C(=O)N(COc1c(Cl)cccc1Cl)S2(=O)=O
3 | > 1000 |  | CC(C)c1cccc2c1C(=O)N(COc1cccc(C(=O)OCCN3CCOCC3)c1)S2(=O)=O
4 | > 100 |  | CC(C)c1cccc2c1C(=O)N(COc1cccc(C(=O)NCCN3CCOCC3)c1)S2(=O)=O
